Laboratory results: ChEMBL document CHEMBL1143492, “Design, synthesis, and bioavailability evaluation of coumarin-based prodrug of meptazinol” (Bioorg Med Chem Lett, 2005)

Experiment: Area under curve was determined after intravenous administration (29.7 umol/kg) in rat
Type: ADME
Settings: in vivo

CCC1(c2cccc(O)c2)CCCCN(C)C1 (stereo unspecified) [MEPTAZINOL]
AUC: 1990 ng·h/mL
